Measured values reported in ChEMBL document CHEMBL1159368, “Phenolic compounds from Nymphaea odorata” (J Nat Prod, 2003).
Converted amounts (≈) assume the structure as drawn.

Assay: Inhibition of Saccharomyces cerevisiae FAS

IC50 [µg/mL] | Compound
25 (≈ 52 µM) | O=c1c(O[C@@H]2O[C@H](CO)[C@H](O)[C@H](O)[C@H]2O)c(-c2cc(O)c(O)c(O)c2)oc2cc(O)cc(O)c12
45 (≈ 104 µM) | C[C@@H]1O[C@@H](Oc2c(-c3ccc(O)cc3)oc3cc(O)cc(O)c3c2=O)[C@H](O)[C@H](O)[C@H]1O [AFZELIN]
0.19 (≈ 0.851 µM) | C/C=C/C/C=C/CCC(=O)[C@H]1O[C@H]1C(N)=O [CERULENIN]

Compound | IC50 [µg/mL]
C[C@@H]1O[C@@H](Oc2c(-c3ccc(O)c(O)c3)oc3cc(O)cc(O)c3c2=O)[C@H](O)[C@H](O)[C@H]1O [QUERCITRIN] | 50 (≈ 112 µM)
